According to paper PMC9681820, “A PDE10A inhibitor CPL500036 is a novel agent modulating striatal function devoid of most neuroleptic side-effects” (Frontiers in Pharmacology, 2022):
Where two headings read alike, the source gives them in different places.

Legend:
[1] = tested on: Salmonella typhimurium TA1535; details: CPL500036 5000µg/plate, n=3
[2] = tested on: Salmonella typhimurium TA100; details: CPL500036 5000µg/plate, n=3
[3] = tested on: Escherichia coli WP2 uvrA; assay: Ames test; details: CPL500036 5000µg/plate, n=3
[4] = tested on: Salmonella typhimurium TA98; assay: Ames test; details: CPL500036 5000µg/plate, n=3
[5] = tested on: Salmonella typhimurium TA1537; assay: Ames test; details: CPL500036 5000µg/plate, n=3
[6] = tested on: cardiac 3D spheroids (cardiomyocytes and fibroblasts derived from human pluripotent cells); assay: Cardiotoxicity in spontaneously beating cardiac 3D spheroids; format: cell-based; details: 3D cardiac spheroids; for AC50: Homo sapiens
Description: The cardiotoxic effect of CPL500036 was evaluated in spontaneously beating cardiac 3D spheroids (comprising cardiomyocytes and fibroblasts derived from human pluripotent cells) by Cyprotex (Cheshire, United Kingdom). Experiments were carried out in accordance with the service-provider’s protocol. Specific parameters of cell health were assessed: number and size of spheroids, DNA structure, intracellular level of calcium ions, mitochondrial mass, membrane potential and cellular ATP. […] During the 14 days of the experiment, redosing occurred on three occasions. Spheroid hypertrophy was measured on days 3, 7, 10, and 14 using the “brightfield live cellular imaging” mode of a Cellomics ArrayScan® XTI system (Thermo Scientific, Waltham, MA, United States). On day-14, the spheroid model was analyzed using the confocal mode of Cellomics ArrayScan XTI following incorporation of appropriate fluorescent dyes. Subsequently, cellular ATP content was measured using CellTiterGlo® (Promega, Fitchburg, WI, United States). Mitomicyn C and dasatinib were used as positive controls (Supplementary Table S1).
concentration at which 50% maximum effect is observed for each cell health parameter; NR - No response observed.

Sprague–Dawley rats = assay: Hyperprolactinemia: plasma prolactin before and 2 h after administration; format: in vivo; details: 3 mg/kg, p.o., n = 4
Description: Four male Sprague–Dawley rats (∼10 weeks; Mossakowski Medical Research Institute, Polish Academy of Sciences, Warsaw, Poland), underwent gavage with CPL500036 (3 mg/kg), haloperidol (3 mg/kg; as a positive control) or vehicle. Rats were fasted for 16 h before administration. Blood samples from the tail vein were collected immediately before and 2 h after administration. Plasma was obtained by centrifugation (1,600 × g, 20 min, 4°C) of blood samples collected on K2EDTA, and was stored at −80°C until analyses. The prolactin concentration in plasma samples was determined using the Prolactin (rat) EIA kit (Bertin Rockville, MD, United States) according to the manufacturer’s protocol. The prolactin concentration difference was assessed as follows: %∆prolactin=cprolactin, 2h−cprolactin, 0h/[…] (1)

[7] = set-up: method as in ref Megens A. A. H. P. et al., 2014; Suzuki et al., 2015; Arakawa et al., 2016; details: compared with marketed antipsychotics; ref Megens A. A. H. P. et al., 2014; Suzuki et al., 2015; Arakawa et al., 2016; cited from earlier work
PDE10A = PDE10A (Homo sapiens, UniProt Q9Y233); set-up: method as in ref Schmidt et al., 2008; Grauer et al., 2009; Harada et al., 2015; details: ref Schmidt et al., 2008; Grauer et al., 2009; Harada et al., 2015; read-out: IC50 against PDE10A; cited from earlier work
[8] = With metabolic activation (+S9 mix), 2AA 2µg/plate
[9] = Without metabolic activation (-S9 mix), 9AA 50µg/plate
[10] = read-out: Mitochondrial mass AC50
[11] = read-out: Mitochondrial membrane potential AC50
[12] = Without metabolic activation (-S9 mix), NPD 4µg/plate
[13] = Without metabolic activation (-S9 mix), SAZ 2µg/plate

PDE10A, sequence (Q9Y233 whole entry, species assumed): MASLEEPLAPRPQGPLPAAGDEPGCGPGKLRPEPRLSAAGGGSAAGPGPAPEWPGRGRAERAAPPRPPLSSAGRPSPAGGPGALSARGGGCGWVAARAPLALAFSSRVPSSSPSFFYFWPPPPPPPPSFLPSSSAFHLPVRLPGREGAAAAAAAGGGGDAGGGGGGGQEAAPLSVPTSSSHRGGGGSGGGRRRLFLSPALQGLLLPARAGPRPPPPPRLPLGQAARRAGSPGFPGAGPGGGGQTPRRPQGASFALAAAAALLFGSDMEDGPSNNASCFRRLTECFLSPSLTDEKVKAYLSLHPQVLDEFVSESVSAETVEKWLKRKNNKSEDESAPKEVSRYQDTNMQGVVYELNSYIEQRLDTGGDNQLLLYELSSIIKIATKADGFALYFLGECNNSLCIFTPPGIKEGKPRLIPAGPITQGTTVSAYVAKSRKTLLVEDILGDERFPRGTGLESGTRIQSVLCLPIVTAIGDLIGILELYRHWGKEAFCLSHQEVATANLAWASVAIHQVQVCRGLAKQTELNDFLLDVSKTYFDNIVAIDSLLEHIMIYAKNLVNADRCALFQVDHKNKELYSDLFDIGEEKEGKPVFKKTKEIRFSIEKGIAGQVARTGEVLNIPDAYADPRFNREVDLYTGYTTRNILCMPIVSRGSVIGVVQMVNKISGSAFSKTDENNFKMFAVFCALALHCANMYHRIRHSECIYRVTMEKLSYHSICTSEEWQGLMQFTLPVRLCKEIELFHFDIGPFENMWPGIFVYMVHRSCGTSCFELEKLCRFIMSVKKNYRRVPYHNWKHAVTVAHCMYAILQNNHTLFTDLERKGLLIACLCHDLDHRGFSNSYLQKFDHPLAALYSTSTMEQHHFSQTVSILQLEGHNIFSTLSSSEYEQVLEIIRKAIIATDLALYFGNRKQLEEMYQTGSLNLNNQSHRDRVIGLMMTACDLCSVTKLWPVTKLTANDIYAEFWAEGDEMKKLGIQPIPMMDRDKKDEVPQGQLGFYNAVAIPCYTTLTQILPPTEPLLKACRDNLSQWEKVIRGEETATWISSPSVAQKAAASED

## Nc1ccc2cc3ccccc3cc2c1 [2AA, 2-aminoanthracene, reference compound]
[1]; [8]
  Mutation rate: 11.38
  Revertants Mean±SD: 159.3±15.57
[2]; [8]
  Mutation rate: 19.26
  Revertants Mean±SD: 1464.0±361.88
[3]; [8]
  Mutation rate: 8.49
  Revertants Mean±SD: 203.7±3.79
[4]; [8]
  Mutation rate: 84.13
  Revertants Mean±SD: 1682.7±156.02
[5]; [8]
  Mutation rate: 9.0
  Revertants Mean±SD: 78.0±7.94

## Nc1c2ccccc2nc2ccccc12 [9AA, 9-Aminoacridine, reference compound]
[5]; [9]
  Mutation rate: 50.65
  Revertants Mean±SD: 287.0±65.60

## Cc1nc(Nc2ncc(C(=O)Nc3c(C)cccc3Cl)s2)cc(N2CCN(CCO)CC2)n1 [Dasatinib]
[6]
  Calcium MEC: 43.0 µM
  Cellular ATP MEC: 0.075 µM
  DNA structure MEC: 2.92 µM
  Mitochondrial mass MEC: 2.43 µM
  Mitochondrial membrane potential MEC: 16.82 µM
  Spheroid size MEC: 0.469 µM
[6]; read-out: Calcium AC50
  AC50: > 50 µM
[6]; read-out: Cellular ATP AC50
  AC50: 0.374 µM
[6]; read-out: DNA structure AC50
  AC50: > 50 µM
[6]; [10]
  AC50: > 5 µM
[6]; [11]
  AC50: 26.4 µM
[6]; read-out: Spheroid count AC50
  AC50: > 50 µM
[6]; read-out: Spheroid size AC50
  AC50: 23.4 µM

## O=C(CCCN1CCC(O)(c2ccc(Cl)cc2)CC1)c1ccc(F)cc1 [Haloperidol]
Sprague–Dawley rats
  prolactin release (relative change in the prolactin level before and 2 h after administration): induced significant prolactin release

## COCCc1ccc(-c2c(C)nc3c(N4CCOCC4)nccn23)cn1 [JNJ-42314,415]
[7]
  cataleptic effect: weaker than that for marketed antipsychotics and did not increase with increasing dose

## COS(C)(=O)=O [MMS, Methyl methanesulfonate, reference compound]
[3]; Without metabolic activation (-S9 mix), MMS 2µg/plate
  Mutation rate: 33.85

## CO[C@@]12[C@H](COC(N)=O)C3=C(C(=O)C(C)=C(N)C3=O)N1C[C@@H]1N[C@@H]12 [Mitomycin C]
[6]
  Calcium MEC: 79.1 µM
  Cellular ATP MEC: 0.243 µM
  DNA structure MEC: 0.704 µM
  Mitochondrial mass MEC: < 0.04 µM
  Mitochondrial membrane potential MEC: 1.89 µM
  Spheroid count MEC: 2 µM
  Spheroid size MEC: 2.97 µM
[6]; read-out: Calcium AC50
  AC50: > 100 µM
[6]; read-out: Cellular ATP AC50
  AC50: 0.766 µM
[6]; read-out: DNA structure AC50
  AC50: 4.41 µM
[6]; [10]
  AC50: 0.731 µM
[6]; [11]
  AC50: 3.88 µM
[6]; read-out: Spheroid size AC50
  AC50: > 100 µM

## Nc1ccc([N+](=O)[O-])cc1N [NPD, 4-Nitro-1,2-phenylenediamine, reference compound]
[4]; [12]
  Mutation rate: 18.6
  Revertants Mean±SD: 335.0±57.51

## Cc1ncc(C)n2nc(/C=C/c3nc(N4CCCC4)cc(N4CCOCC4)n3)nc12 [PDM-042, (E )-4-(2-(2-(5,8-dimethyl-[1,2, 4]triazolo[1,5-a]pyrazin-2-yl)vinyl)-6-(pyrrolidin-1-yl)pyrimidin-4-yl)morpholine]
[7]
  cataleptic effect: weaker than that for marketed antipsychotics and did not increase with increasing dose

## [N-]=[N+]=[N-].[Na+] [SAZ, Sodium Azide, reference compound]
[1]; [13]
  Mutation rate: 74.21
  Revertants Mean±SD: 940.0±91.95
[2]; [13]
  Mutation rate: 12.76
  Revertants Mean±SD: 1093.0±64.66

## COc1cn(-c2ccc(-n3cccn3)cc2F)nc(-c2ccnn2-c2ccccc2)c1=O [TAK-063]
[7]
  cataleptic effect: weaker than that for marketed antipsychotics and did not increase with increasing dose

## FC(F)(F)Cn1cc(-c2ccncc2)c(-c2ccc(OCc3ccc4ccccc4n3)cc2)n1 [TP-10]
PDE10A
  IC50: 0.0003 µM
